Laboratory results published in US8404727B2, “Pharmaceutical composition that includes a dipeptidyl peptidase-IV inhibitor” (Glenmark Pharmaceuticals S.A., priority 2009, dated 2013).
Where a name gives a salt, the structure may show the parent alone.

Legend:
[1] = Compatibility study of melogliptin mesylate with various excipients: related substances (RS) by HPLC; format: physicochemical; settings: sealed glass vial
Description: Melogliptin Mesylate was Subjected for Compatibility Studies in Solid State Condition with Dry Mixing Technique Using the Following Protocol:
Melogliptin mesylate and various excipients in predetermined w/w ratios were mixed geometrically. Melogliptin mesylate to excipients ratios were selected based on the excipients concentration expected to be used during the development of the formulation. The placebo of each excipient used was kept on respective stability conditions as control.
The samples were stored in glass vials. The vials were closed with rubber stoppers and sealed with aluminum seals, and kept in upright position.
The vials were stored at three storage conditions: 25° C., 30° C. and 40° C.
The samples were analyzed initially, then followed by the end of 1 week, 2 weeks and 4 weeks time periods for related substances (RS), as monitored by HPLC and differential scanning calorimetry (DSC), to study the interaction between melogliptin and various excipients.
The compatibility data in terms of RS generated initially and upon 4 weeks (“4 W”) storage at about 40° C. of various samples are tabulated below.
Brief Analytical Method for Determination of RS in Melogliptin Mesylate:
A reversed-phase gradient HPLC method was developed. The analysis was performed using C18 HPLC column (Phenomenex Gemini 110 A, C-18, 50×4.6 mm, 3 μm). The mobile phase was a gradient mixture of a solution of 1.26 g of ammonium formate in 1000 ml of purified water adjusted to pH 8.4 using 25% v/v ammonia solution (Mobile Phase A) and a solution of 1.26 g of ammonium formate in a mixture of purified water (800 ml) and acetonitrile (200 ml) adjusted to pH 8.4 using 25% v/v ammonia solution (Mobile Phase B). The gradient program is provided below. The flow rate was 1.0 ml/min; injection volume 20 μl; and column temperature was 25° C. Suitable dilutions of the placebo, standard and test samples were injected in the column. Areas for impurity A (eluted at the relative retention time of 0.51) and total RS in the chromatogram were integrated, and accordingly the contents of impurity A and total RS were determined.

[2] = 4 weeks storage at about 40° C.
[3] = dry mix of melogliptin mesylate with excipient, initial

Compound	melting point	RS by HPLC, Impurity A, 4 W [1, 2]	RS by HPLC, Total RS, 4 W [1, 2]	RS by HPLC, Impurity A, Initial [1, 3]	RS by HPLC, Total RS, Initial [1, 3]
N=C1[C@@H]2C[C@H](F)CN2C(=O)CN1[C@@H]1CC[C@H](Cn2cncn2)C1 (stereo in doubt) (as salt: mesylate) [impurity A, 7-fluoro-1-imino-2-[3-(1H-1,2,4-triazol-1-ylmethyl)cyclopentyl] hexahydropyrrolo[1,2-a]pyrazin-4(1H)-one mesylate]	150 to 160 °C				
N=C1[C@@H]2C[C@H](F)CN2C(=O)CN1[C@@H]1CC[C@H](Cn2cncn2)C1 (stereo in doubt) [Example 11, 7-fluoro-1-imino-2-[3-(1H-1,2,4-triazol-1-ylmethyl)cyclopentyl] hexahydropyrrolo[1,2-a]pyrazin-4(1H)-one]	158 to 162 °C				
N#C[C@@H]1C[C@H](F)CN1C(=O)CN[C@@H]1CC[C@H](Cn2cncn2)C1 [Melogliptin mesylate, (2S,4S)-1-{2-[(3S,1R)-3-(1H-1,2,4-triazol-1-ylmethyl)cyclopentylamino]acetyl}-4-fluoropyrrolidine-2-carbonitrile]		0.05 % w/w	0.13 % w/w	0.02 % w/w	0.12 % w/w
